Test results reported in ChEMBL document CHEMBL1201862, “PubChem BioAssay data set” (2004).
Activity calls are given as the source filed them.

What was measured:
[1] = tested on: Vero; assay: cells; type: functional, cell-based; details: Chlorocebus sabaeus
[2] = molecular target: T1, Coagulation factor XII (Homo sapiens, UniProt P00748); type: functional;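 further: activated factor XIIa alpha cleaving a fluorogenic AMC peptide substrate; inhibitor potency from loss of enzyme activity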
T1 sequence (P00748 whole entry): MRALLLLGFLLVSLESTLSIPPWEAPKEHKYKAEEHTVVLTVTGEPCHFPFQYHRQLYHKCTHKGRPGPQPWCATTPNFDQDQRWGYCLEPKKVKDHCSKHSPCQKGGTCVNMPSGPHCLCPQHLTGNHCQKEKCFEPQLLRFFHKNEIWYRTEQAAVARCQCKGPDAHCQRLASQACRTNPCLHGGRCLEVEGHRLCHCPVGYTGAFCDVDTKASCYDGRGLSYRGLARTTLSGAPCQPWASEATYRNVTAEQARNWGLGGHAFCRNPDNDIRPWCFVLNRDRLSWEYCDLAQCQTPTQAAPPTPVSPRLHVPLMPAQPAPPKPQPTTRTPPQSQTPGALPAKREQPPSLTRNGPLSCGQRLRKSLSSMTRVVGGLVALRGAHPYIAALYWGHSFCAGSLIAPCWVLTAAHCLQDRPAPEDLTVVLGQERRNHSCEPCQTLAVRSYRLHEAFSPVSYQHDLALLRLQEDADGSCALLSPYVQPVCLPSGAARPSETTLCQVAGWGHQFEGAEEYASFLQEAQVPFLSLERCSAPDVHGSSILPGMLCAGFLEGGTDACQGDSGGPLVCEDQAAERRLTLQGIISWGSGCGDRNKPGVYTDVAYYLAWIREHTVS

[3] = molecular target: T2, Beta-galactosidase (Escherichia coli, UniProt Q8VNN2); assay: PubChem AID 485352; type: functional
[4] = molecular target: T3, Type-1 angiotensin II receptor (Homo sapiens, UniProt P30556); assay: antagonism of angiotensin II type 1 receptor – cell-based, uHTS hits, selectivity assay for APJ receptor antagonist project, dose response (AID 463214); type: functional;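 further: antagonist potency against angiotensin II stimulated AT1 response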
T3 sequence (P30556 whole entry): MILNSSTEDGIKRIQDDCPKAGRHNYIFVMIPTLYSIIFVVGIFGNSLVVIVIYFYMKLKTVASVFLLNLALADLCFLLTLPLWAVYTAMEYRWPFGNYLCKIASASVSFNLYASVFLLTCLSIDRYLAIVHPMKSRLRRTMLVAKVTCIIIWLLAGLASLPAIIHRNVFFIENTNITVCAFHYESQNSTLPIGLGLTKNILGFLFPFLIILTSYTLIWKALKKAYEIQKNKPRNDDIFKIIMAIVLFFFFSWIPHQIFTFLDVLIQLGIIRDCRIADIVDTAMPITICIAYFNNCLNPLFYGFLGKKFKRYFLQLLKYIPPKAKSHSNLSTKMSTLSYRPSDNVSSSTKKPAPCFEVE

[5] = blockers of HIV-1 envelope-mediated cell-cell fusion – cherry-pick, dose response (AID 652057); type: functional, cell-based
[6] = blockers of HIV-1 ZM109 envelope-driven cell-cell fusion – HeLa effector, CEM target cells, luciferase, cherry-pick, dose response (AID 652058); type: functional, cell-based;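 further: luciferase signal from HIV-1 Env mediated cell-cell fusion of effector and target cells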
[7] = off-target signal loss in HeLa-CEM21 co-culture – HeLa F-luc CTL cells, cherry-picked, counter-screen for HIV-1 Env fusion inhibitor project, dose response (AID 652040); type: functional, cell-based;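 further: potency for signal decrease marking cytotoxic or nonspecific inhibition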
[8] = HIV-1 AD8 envelope cell-cell fusion blockers – cherry-pick, dose response (AID 652062); type: functional, cell-based;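 further: luciferase signal from cell-cell fusion driven by HIV-1 clade B AD8 Env; potency is for inhibitors of fusion seen as a drop in luminescence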
[9] = reduction of Shn3 3'UTR-driven luciferase in osteoblasts – cell-based, Clone20 osteoblasts, firefly luciferase, cherry-picked, dose response (AID 624132); type: functional;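 further: firefly luciferase luminescence from reporter carrying the Shn3 3'UTR in osteoblasts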
[10] = loss of viability in HepG2 cells – cell-based, CellTiter-Glo, cherry-picked, cytotoxicity control for Shn3 inhibitor project, dose response (AID 624134); type: functional
[11] = non-specific 3'UTR reporter inhibition in Clone20-Shn3RL – cell-based, Renilla luciferase, cherry-picked, counter-screen for Shn3 inhibitor project, dose response (AID 624133); type: functional
[12] = molecular target: T2, Beta-galactosidase; assay: Dose response counterscreen for EBI2 assay utilizing the enzyme, b-galactosidase.; type: functional
[13] = molecular target: T4, Histone-lysine N-methyltransferase NSD2 (Homo sapiens, UniProt O96028); type: biochemical
T4 sequence (O96028 whole entry): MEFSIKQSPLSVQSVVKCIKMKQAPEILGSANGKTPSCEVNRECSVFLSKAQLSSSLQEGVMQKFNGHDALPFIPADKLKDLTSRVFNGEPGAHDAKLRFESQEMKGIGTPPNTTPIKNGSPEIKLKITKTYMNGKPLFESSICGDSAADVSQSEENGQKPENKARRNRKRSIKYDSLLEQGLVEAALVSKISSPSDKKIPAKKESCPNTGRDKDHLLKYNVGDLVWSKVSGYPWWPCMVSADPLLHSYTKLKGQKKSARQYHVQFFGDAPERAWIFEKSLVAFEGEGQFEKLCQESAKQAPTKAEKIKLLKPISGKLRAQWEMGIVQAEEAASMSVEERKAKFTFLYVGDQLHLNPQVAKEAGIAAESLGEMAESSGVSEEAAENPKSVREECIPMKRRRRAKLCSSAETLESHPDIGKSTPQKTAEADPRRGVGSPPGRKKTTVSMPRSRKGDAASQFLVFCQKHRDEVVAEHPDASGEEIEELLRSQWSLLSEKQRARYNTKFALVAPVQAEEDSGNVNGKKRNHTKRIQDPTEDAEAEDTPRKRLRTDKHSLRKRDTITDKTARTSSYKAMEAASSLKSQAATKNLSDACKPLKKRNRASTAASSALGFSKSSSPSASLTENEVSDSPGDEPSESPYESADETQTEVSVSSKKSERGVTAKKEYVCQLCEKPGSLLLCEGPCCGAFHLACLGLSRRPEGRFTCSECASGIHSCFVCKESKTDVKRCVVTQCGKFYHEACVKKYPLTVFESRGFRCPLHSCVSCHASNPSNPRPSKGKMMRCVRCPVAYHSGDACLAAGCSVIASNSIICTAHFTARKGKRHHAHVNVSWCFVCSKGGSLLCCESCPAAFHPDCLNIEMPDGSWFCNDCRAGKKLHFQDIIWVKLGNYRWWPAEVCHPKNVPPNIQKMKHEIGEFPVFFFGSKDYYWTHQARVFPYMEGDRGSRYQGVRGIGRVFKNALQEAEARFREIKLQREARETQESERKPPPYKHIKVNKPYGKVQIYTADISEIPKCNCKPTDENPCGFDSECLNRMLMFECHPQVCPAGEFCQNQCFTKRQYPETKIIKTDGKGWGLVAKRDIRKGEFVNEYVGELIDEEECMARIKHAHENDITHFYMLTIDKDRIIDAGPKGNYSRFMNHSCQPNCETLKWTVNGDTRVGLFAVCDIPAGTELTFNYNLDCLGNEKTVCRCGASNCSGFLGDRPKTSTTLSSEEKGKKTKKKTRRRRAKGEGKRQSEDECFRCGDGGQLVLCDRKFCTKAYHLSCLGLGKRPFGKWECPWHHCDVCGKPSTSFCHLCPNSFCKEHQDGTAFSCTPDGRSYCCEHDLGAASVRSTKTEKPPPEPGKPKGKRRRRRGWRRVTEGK

[14] = NIH-3T3 fibroblast cytotoxicity, dose response, cytotoxicity control, cell-based, fluorescence, Alamar Blue, secondary assay (AID 2327); type: functional;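 further: NIH-3T3 mouse fibroblasts cultured with fluconazole at 8 µg/mL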
[15] = fluconazole-exposed Candida albicans growth modulators – fluorescence, retest, confirmation (AID 2467); type: functional, cell-based
[16] = molecular target: T5, Polyadenylate-binding protein 1 (Homo sapiens, UniProt P11940); assay: MLLE binding blockers, Cy5 peptide tracer – biochemical, fluorescence polarization, Cy5-PAM2 peptide, secondary, miRNA deadenylation inhibitor project, dose response (AID 602260); type: functional; details: read-out: IC50_Mean
[17] = molecular target: T5, Polyadenylate-binding protein 1; assay: MLLE domain peptide-binding blockers, IC50 – biochemical, fluorescence polarization, FITC-PAM2 peptide, dose response (AID 602259); type: functional; details: read-out: IC50_Mean

T2 sequence (Q8VNN2 whole entry): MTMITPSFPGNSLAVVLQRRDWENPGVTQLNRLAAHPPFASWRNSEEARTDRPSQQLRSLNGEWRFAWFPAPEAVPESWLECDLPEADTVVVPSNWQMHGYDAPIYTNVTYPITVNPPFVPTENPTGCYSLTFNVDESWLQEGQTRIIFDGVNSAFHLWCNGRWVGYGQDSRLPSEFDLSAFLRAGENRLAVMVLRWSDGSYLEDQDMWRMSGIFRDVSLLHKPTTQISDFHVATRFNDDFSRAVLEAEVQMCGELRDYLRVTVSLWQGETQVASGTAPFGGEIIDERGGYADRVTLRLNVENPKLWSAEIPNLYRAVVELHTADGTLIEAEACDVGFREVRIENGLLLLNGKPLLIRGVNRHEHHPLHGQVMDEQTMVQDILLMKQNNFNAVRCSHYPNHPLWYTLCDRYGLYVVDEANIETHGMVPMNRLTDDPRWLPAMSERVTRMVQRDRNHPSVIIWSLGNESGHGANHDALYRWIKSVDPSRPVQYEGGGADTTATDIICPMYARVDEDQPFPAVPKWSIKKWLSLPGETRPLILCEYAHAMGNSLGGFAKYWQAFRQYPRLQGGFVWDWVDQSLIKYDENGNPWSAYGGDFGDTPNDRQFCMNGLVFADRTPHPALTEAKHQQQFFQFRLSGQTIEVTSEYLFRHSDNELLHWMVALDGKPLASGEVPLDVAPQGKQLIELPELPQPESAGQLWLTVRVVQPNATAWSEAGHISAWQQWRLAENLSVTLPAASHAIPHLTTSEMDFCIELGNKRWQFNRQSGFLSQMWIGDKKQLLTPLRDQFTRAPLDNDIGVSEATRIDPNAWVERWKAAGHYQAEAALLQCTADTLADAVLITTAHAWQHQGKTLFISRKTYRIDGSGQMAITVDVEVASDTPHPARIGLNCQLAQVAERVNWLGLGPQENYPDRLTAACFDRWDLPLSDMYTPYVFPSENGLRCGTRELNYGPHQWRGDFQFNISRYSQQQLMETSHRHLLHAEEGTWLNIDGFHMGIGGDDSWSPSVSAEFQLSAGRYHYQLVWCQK
T5 sequence (P11940 whole entry, the tested form may be a part): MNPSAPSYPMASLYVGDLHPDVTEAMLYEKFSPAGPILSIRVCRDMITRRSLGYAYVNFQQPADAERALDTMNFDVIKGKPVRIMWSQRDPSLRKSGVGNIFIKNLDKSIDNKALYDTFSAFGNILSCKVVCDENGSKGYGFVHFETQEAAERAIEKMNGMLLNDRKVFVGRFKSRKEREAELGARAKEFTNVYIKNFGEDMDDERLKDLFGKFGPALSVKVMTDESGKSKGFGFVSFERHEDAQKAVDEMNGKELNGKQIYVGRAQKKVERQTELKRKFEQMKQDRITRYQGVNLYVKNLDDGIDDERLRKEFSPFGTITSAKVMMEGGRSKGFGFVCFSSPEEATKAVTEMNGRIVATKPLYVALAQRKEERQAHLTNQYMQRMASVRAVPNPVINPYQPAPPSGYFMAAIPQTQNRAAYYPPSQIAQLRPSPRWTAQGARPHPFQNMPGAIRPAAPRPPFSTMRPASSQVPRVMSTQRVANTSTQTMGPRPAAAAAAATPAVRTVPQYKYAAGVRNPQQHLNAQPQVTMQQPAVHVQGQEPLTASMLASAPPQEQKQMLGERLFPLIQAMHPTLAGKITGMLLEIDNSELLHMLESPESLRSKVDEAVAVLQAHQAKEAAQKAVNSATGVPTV

O=C1C2CCCN2C(c2ccccc2)N1c1ccc(Cl)cc1 (configuration not stated)
IC50 [1]: > 25 µM (active)

COc1cccc(NC(=O)Nc2cccnc2)c1
IC50 [2]: > 50 µM (inactive)

Cc1ccc2c(c1)nnn2C1CCN(CC(=O)NCCc2nc3ccccc3[nH]2)CC1
EC50 [3]: > 40 µM (inactive) | IC50 [4]: > 40 µM (not active)

CCOc1ccc(OCc2cccc(C(=O)N3CCOCC3)c2)cc1
AC50 [5]: 2.64 µM (active) | AC50 [6]: 22 µM (active) | AC50 [7]: 5.29 µM (active) | AC50 [8]: 7.58 µM (active)

CCOC(=O)c1c(O)c2cc(Cl)ccc2n(CC)c1=O
IC50 [2]: > 50 µM (inactive)

Cc1nc2ccccc2c2oc(C(=O)N3CCN(C4CCCCC4)CC3)cc12
AC50 [9]: 7.02 µM (active) | AC50 [10]: 68.8 µM (active) | AC50 [11]: 3.44 µM (active) | IC50 [12]: > 80 µM (inactive)

Cc1cc2ccccn2c1C(=S)NC(=O)c1ccccc1
AC50 [13]: > 20 µM (inactive)

Cc1cc(OCC(=O)N(C)Cc2ccccc2)ccc1Br
IC50 [12]: > 80 µM (inactive)

O=C(NNc1ccc(Cl)cc1)c1sccc1Cl
EC50 [14]: 3.77 µM (active) | EC50 [3]: > 40 µM (inactive) | EC50 [15]: 2.04 µM (active) | IC50 [4]: 12.4 µM (active) | IC50 [16]: > 66 µM (inactive) | IC50 [17]: > 66 µM (inactive)

COc1cccc(-c2noc(C3CCCN(S(=O)(=O)c4cccc(Cl)c4C)C3)n2)c1 (configuration not stated)
AC50 [5]: 6.22 µM (active) | AC50 [6]: 10.9 µM (active) | AC50 [7]: 16.5 µM (active) | AC50 [8]: 11.9 µM (active)

COc1ccc(-n2cc(-c3ccc(Br)cc3)nc2S)cc1
IC50 [12]: > 80 µM (inactive)

CCN1C(=O)/C(=C\c2ccco2)C(C(=O)OC)=C1C
IC50 [2]: > 50 µM (inactive)
